From US10570122B2, “Compounds with anti-tumoral activity” (AB Science, priority 2015, dated 2020)

How the values were obtained:
BXPC3 = assay: CellTiter-Blue cell-based survival/proliferation assay, BXPC3; conditions: Homo sapiens, BXPC-3; BXPC3 pancreas tumor cell line, 48 h
In short: (§1)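 Tenfold compound dilutions (0–10 μM) were added to 1·10^4 cells/well. Plates incubated 48 h at 37 °C. CellTiter-Blue reduction (4 h, 37 °C) was read as fluorescence at 590 nm, background-corrected with a cell-free blank.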

CLS354 = assay: CellTiter-Blue cell-based survival/proliferation assay, CLS354; conditions: Homo sapiens, CLS-354; CLS354_4 head & neck tumor cell line, 48 h
In short: as §1

DU145 = assay: CellTiter-Blue cell-based survival/proliferation assay, DU145; conditions: Homo sapiens, DU-145; DU145 prostate tumor cell line, 48 h
In short: as §1

HL60 = assay: CellTiter-Blue cell-based survival/proliferation assay, HL60; conditions: Homo sapiens, HL-60, Leukemia cell line HL60, 48 h, read-out: Anti-tumoral activity (measured IC50) HL60
In short: as §1

A498 = assay: CellTiter-Blue cell-based survival/proliferation assay, A498; conditions: Homo sapiens; A498 kidney tumor cell line, 48 h
In short: as §1

U118 = assay: CellTiter-Blue cell-based survival/proliferation assay, U118; conditions: Homo sapiens; U118 glioblastoma cell line, 48 h
Protocol: (§2) Cell-Based Proliferation Screening of Compounds
(§3) CellTiter-Blue cell-based survival/proliferation assay (Promega G8080) was performed on tumor cell lines. A total of 1·10^4 cells/well/50 μl were seeded in a 96-wells plate. Treatment was initiated by addition of a 2× drug solution of 1/10 serial dilutions ranging from 0 to 10 μM. Cells were grown for 48 h at 37° C. and then incubated with 10 μl/well of Promega CellTiter-Bleue reagent for 4 h at 37° C. The amount of resorufin dye formed was quantified by its fluorescence emission at 590 nm using a scanning multiwell spectrophotometer (OPTIMA, BMG labtech, France). A blank well without cells was used as a background control for the spectrophotometer.

A375 = assay: CellTiter-Blue cell-based survival/proliferation assay, A375; conditions: Homo sapiens, A-375; A375 melanoma cell line, 48 h
Protocol: as §2, §3

HGC27 = assay: CellTiter-Blue cell-based survival/proliferation assay, HGC27; conditions: Homo sapiens, HGC-27; HGC27 stomach tumor cell line, 48 h
In short: as §1

CALU6 = assay: CellTiter-Blue cell-based survival/proliferation assay, CALU6; conditions: Homo sapiens, Calu-6; CALU6 lung tumor cell line, 48 h
In short: as §1

HUT78 = assay: CellTiter-Blue cell-based survival/proliferation assay, HUT78; conditions: Homo sapiens, Lymphoma cell line HUT78, 48 h, read-out: Anti-tumoral activity (measured IC50) HUT78
In short: as §1

U2OS = assay: CellTiter-Blue cell-based survival/proliferation assay, U2OS; conditions: Homo sapiens; U2OS osteosarcoma cell line, 48 h
Protocol: as §2, §3

DLD1 = assay: CellTiter-Blue cell-based survival/proliferation assay, DLD1; conditions: Homo sapiens, DLD-1; DLD_1 colorectal tumor cell line, 48 h
In short: as §1

A549 = assay: CellTiter-Blue cell-based survival/proliferation assay, A549; conditions: Homo sapiens; A549 lung tumor cell line, 48 h
In short: as §1

HCT116 = assay: CellTiter-Blue cell-based survival/proliferation assay, HCT116; conditions: Homo sapiens, HCT-116; HCT116 colorectal tumor cell line, 48 h
In short: as §1

BT20 = assay: CellTiter-Blue cell-based survival/proliferation assay, BT20; conditions: Homo sapiens, BT-20; BT20 breast tumor cell line, 48 h
In short: as §1

MDAMB231 = assay: CellTiter-Blue cell-based survival/proliferation assay, MDAMB231; conditions: Homo sapiens, MDA-MB-231; MDAMB231 breast tumor cell line, 48 h
In short: as §1

HEP2 = assay: CellTiter-Blue cell-based survival/proliferation assay, HEP2; conditions: Homo sapiens, HEp-2; HEP2 head & neck tumor cell line, 48 h
In short: as §1

MESSA = assay: CellTiter-Blue cell-based survival/proliferation assay, MESSA; conditions: Homo sapiens, MES-SA; MESSA ovary tumor cell line, 48 h
In short: as §1

U87MG = assay: CellTiter-Blue cell-based survival/proliferation assay, U87MG; conditions: Homo sapiens, U-87 MG; U87_MG glioblastoma cell line, 48 h
Protocol: as §2, §3

PANC1 = assay: CellTiter-Blue cell-based survival/proliferation assay, PANC1; conditions: Homo sapiens, PANC-1; PANC_1 pancreas tumor cell line, 48 h
In short: as §1

SW579 = assay: CellTiter-Blue cell-based survival/proliferation assay, SW579; conditions: Homo sapiens; SW579 head & neck tumor cell line, 48 h
In short: as §1

AGS = assay: CellTiter-Blue cell-based survival/proliferation assay, AGS; conditions: Homo sapiens; AGS stomach tumor cell line, 48 h
In short: as §1

KARPAS299 = assay: CellTiter-Blue cell-based survival/proliferation assay, KARPAS299; conditions: Homo sapiens, KARPAS-299, Lymphoma cell line KARPAS299, 48 h, read-out: Anti-tumoral activity (measured IC50) KARPAS299
In short: as §1

REC1 = assay: CellTiter-Blue cell-based survival/proliferation assay, REC1; conditions: Homo sapiens, Lymphoma cell line REC1, 48 h, read-out: Anti-tumoral activity (measured IC50) REC1
In short: as §1

HEPG2 = assay: CellTiter-Blue cell-based survival/proliferation assay, HEPG2; conditions: Homo sapiens; HEPG2 liver tumor cell line, 48 h
In short: as §1

MELWO = assay: CellTiter-Blue cell-based survival/proliferation assay, MELWO; conditions: Homo sapiens; MEL_WO melanoma cell line, 48 h
Protocol: as §2, §3

TOV112D = assay: CellTiter-Blue cell-based survival/proliferation assay, TOV112D; conditions: Homo sapiens; TOV112D ovary tumor cell line, 48 h
In short: as §1

PC3 = assay: CellTiter-Blue cell-based survival/proliferation assay, PC3; conditions: Homo sapiens, PC-3; PC3 prostate tumor cell line, 48 h
In short: as §1

ACHN = assay: CellTiter-Blue cell-based survival/proliferation assay, ACHN; conditions: Homo sapiens; ACHN kidney tumor cell line, 48 h
In short: as §1

H1299 = assay: CellTiter-Blue cell-based survival/proliferation assay, H1299; conditions: Homo sapiens, NCI-H1299; H1299 lung tumor cell line, 48 h
In short: as §1

A4513 = assay: CellTiter-Blue cell-based survival/proliferation assay, A4513; conditions: Homo sapiens; A4513 Ewing cell line, 48 h
Protocol: as §2, §3

PLCPRF5 = assay: CellTiter-Blue cell-based survival/proliferation assay, PLCPRF5; conditions: Homo sapiens, PLC-PRF-5; PLC_PRF5 liver tumor cell line, 48 h
In short: as §1

OPM2 = assay: CellTiter-Blue cell-based survival/proliferation assay, OPM2; conditions: Homo sapiens, OPM-2, Myeloma cell line OPM2, 48 h, read-out: Anti-tumoral activity (measured IC50) OPM2
In short: as §1

Compound	IC50 (BXPC3)	IC50 (CLS354)	IC50 (DU145)	IC50 (HL60)	IC50 (A498)	IC50 (U118)	IC50 (A375)	IC50 (HGC27)	IC50 (CALU6)	IC50 (HUT78)	IC50 (U2OS)	IC50 (DLD1)	IC50 (A549)	IC50 (HCT116)	IC50 (BT20)	IC50 (MDAMB231)	IC50 (HEP2)	IC50 (MESSA)	IC50 (U87MG)	IC50 (PANC1)	other results
CCOCc1ccc(C)c(Nc2ncc(-c3ccc(-n4cccn4)cc3)s2)c1 [Example 004, (5-Ethoxymethyl-2-methyl-phenyl)-[5-(4-pyrazol-1-yl-phenyl)-thiazol-2-yl]-amine]	> 1000 nM	> 1000 nM	> 1000 nM	> 1000 nM	> 1000 nM	> 1000 nM	> 1000 nM	> 1000 nM	> 1000 nM	> 1000 nM	> 1000 nM	> 1000 nM	> 1000 nM	> 1000 nM	> 1000 nM	> 1000 nM	> 1000 nM	> 1000 nM	> 1000 nM	> 1000 nM	IC50 (SW579): > 1000 nM; IC50 (AGS): > 1000 nM; IC50 (KARPAS299): > 1000 nM; IC50 (REC1): > 1000 nM; IC50 (HEPG2): > 1000 nM; IC50 (MELWO): > 1000 nM; IC50 (TOV112D): > 1000 nM; IC50 (PC3): > 1000 nM; IC50 (ACHN): > 1000 nM; IC50 (H1299): > 1000 nM; IC50 (A4513): > 1000 nM; IC50 (PLCPRF5): > 1000 nM; IC50 (OPM2): > 1000 nM
CCOCc1ccc(C)c(Nc2nc(-c3ccc(N4CCNC4=O)cc3)ns2)c1 [Example 010, 1-{4-[5-(5-Ethoxymethyl-(2-methyl-phenylamino))-[1,2,4]thiadiazol-3-yl]-phenyl}-imidazolidin-2-one]	> 1000 nM	≤ 100 nM	> 1000 nM	≤ 100 nM	> 1000 nM	> 1000 nM	≤ 100 nM	≤ 100 nM	500 to 1000 nM	≤ 100 nM	> 1000 nM	> 1000 nM	> 1000 nM	≤ 100 nM	> 1000 nM	> 1000 nM	≤ 100 nM	> 1000 nM	> 1000 nM	> 1000 nM	IC50 (SW579): ≤ 100 nM; IC50 (AGS): > 1000 nM; IC50 (KARPAS299): ≤ 100 nM; IC50 (REC1): ≤ 100 nM; IC50 (HEPG2): > 1000 nM; IC50 (MELWO): ≤ 100 nM; IC50 (TOV112D): ≤ 100 nM; IC50 (PC3): ≤ 100 nM; IC50 (ACHN): ≤ 100 nM; IC50 (H1299): 100 to 500 nM; IC50 (A4513): > 1000 nM; IC50 (PLCPRF5): > 1000 nM; IC50 (OPM2): ≤ 100 nM
Cc1ccc(C(=O)NCCN2CCOCC2)cc1Nc1ncc(-c2ccc(-n3cccn3)cc2)o1 [Example 005, 4-Methyl-N-(2-morpholin-4-yl-ethyl)-3-[5-(4-pyrazol-1-yl-phenyl)-oxazol-2-ylamino]-benzamide]	> 1000 nM	> 1000 nM	> 1000 nM	> 1000 nM	> 1000 nM	> 1000 nM	> 1000 nM	> 1000 nM	> 1000 nM	> 1000 nM	> 1000 nM	> 1000 nM	> 1000 nM	> 1000 nM	> 1000 nM	> 1000 nM	> 1000 nM	> 1000 nM	> 1000 nM	> 1000 nM	IC50 (SW579): > 1000 nM; IC50 (AGS): > 1000 nM; IC50 (KARPAS299): > 1000 nM; IC50 (REC1): > 1000 nM; IC50 (HEPG2): > 1000 nM; IC50 (MELWO): > 1000 nM; IC50 (TOV112D): > 1000 nM; IC50 (PC3): > 1000 nM; IC50 (ACHN): > 1000 nM; IC50 (H1299): > 1000 nM; IC50 (A4513): > 1000 nM; IC50 (PLCPRF5): > 1000 nM; IC50 (OPM2): > 1000 nM
COc1ccc(C)c(Nc2ncc(-c3ccc(-n4cccn4)cc3)s2)c1 [Example 011, (5-Methoxy-2-methyl-phenyl)-[5-(4-pyrazol-1-yl-phenyl)-thiazol-2-yl]-amine]	> 1000 nM	> 1000 nM	> 1000 nM	> 1000 nM	> 1000 nM	> 1000 nM	> 1000 nM	> 1000 nM	> 1000 nM	> 1000 nM	> 1000 nM	> 1000 nM	> 1000 nM	> 1000 nM	> 1000 nM	> 1000 nM	> 1000 nM	> 1000 nM	> 1000 nM	> 1000 nM	IC50 (SW579): > 1000 nM; IC50 (AGS): > 1000 nM; IC50 (KARPAS299): > 1000 nM; IC50 (REC1): > 1000 nM; IC50 (HEPG2): > 1000 nM; IC50 (MELWO): > 1000 nM; IC50 (TOV112D): > 1000 nM; IC50 (PC3): > 1000 nM; IC50 (ACHN): > 1000 nM; IC50 (H1299): > 1000 nM; IC50 (A4513): > 1000 nM; IC50 (PLCPRF5): > 1000 nM; IC50 (OPM2): > 1000 nM
